Experimental data: patent US8871933B2, “Purified pyrroloquinolinyl-pyrrolidine-2,5-dione compositions and methods for preparing and using same” (ArQule, Inc., priority 2009, dated 2014)

How the values were obtained:
[1] = tested on: MDA-MB-231 human breast cancer cells; assay: Human breast cancer xenograft; type: in vivo, female athymic nude mice
Experimental: MDA-MB-231 human breast cancer cells were inoculated subcutaneously into female athymic nude mice (8.0×10^6 cells/mouse) and allowed to form palpable tumors. Once the tumors reached approximately 60 mm^3, the animals were treated orally with (−)-trans-3-(5,6-dihydro-4H-pyrrolo[3,2,1-ij]quinolin-1-yl)-4-(1H-indol-3-yl)pyrrolidine-2,5-dione at 200 mg/kg or vehicle control daily (5 consecutive days, followed by a 2 day dosing holiday). (−)-trans-3-(5,6-dihydro-4H-pyrrolo[3,2,1-ij]quinolin-1-yl)-4-(1H-indol-3-yl)pyrrolidine-2,5-dione was formulated in PEG 400:20% Vitamin E TPGS (60:40). The animals received a total of 20 doses of (−)-trans-3-(5,6-dihydro-4H-pyrrolo[3,2,1-ij]quinolin-1-yl)-4-(1H-indol-3-yl)pyrrolidine-2,5-dione or vehicle control. Tumors were measured throughout treatment and the post-treatment observation period. Each point represents the mean±SEM of ten tumors. (See, FIG. 8)

MCF-7 = assay: Cytotoxicity MTS assay; type: cell-based, human; settings: 0.03 to 30 μM; no immunodetectable c-Met or phospho-c-Met
Experimental: (§1) Various cancer cell lines were treated with (−)-trans-3-(5,6-dihydro-4H-pyrrolo[3,2,1-ij]quinolin-1-yl)-4-(1H-indol-3-yl)pyrrolidine-2,5-dione at indicated concentrations ranging from 0.03 to 30 μM. The sensitivity of these cells to (−)-trans-3-(5,6-dihydro-4H-pyrrolo[3,2,1-ij]quinolin-1-yl)-4-(1H-indol-3-yl)pyrrolidine-2,5-dione was measured by a standard cytoxicity MTS assay (FIG. 10). Human cancer cell lines expressing c-Met and/or phospho-c-Met were sensitive to (−)-trans-3-(5,6-dihydro-4H-pyrrolo[3,2,1-ij]quinolin-1-yl)-4-(1H-indol-3-yl)pyrrolidine-2,5-dione.

NCI-H661 = assay: Cytotoxicity MTS assay; type: cell-based, human; settings: 0.03 to 30 μM; no immunodetectable c-Met or phospho-c-Met
Experimental: as §1

SK-MEL-28 = assay: Cytotoxicity MTS assay; type: cell-based, human; settings: 0.03 to 30 μM; no immunodetectable c-Met or phospho-c-Met
Experimental: as §1

phospho-c-Met = biological target: T1, phospho-c-Met (Homo sapiens, UniProt P08581); assay: Phospho-c-Met in HT-29 xenograft tumors (immunohistochemistry, Western blotting); type: in vivo, mice; settings: single dose 300 mg/kg, 24 hours later
T1 construct: from tissue; host or cells: HT-29 xenograft tumour in mice
Experimental: A human colon cancer xenograft model with HT-29 human colon cancer cells was established as described in Example 23. The tumor-bearing mice were treated with a single dose of (−)-trans-3-(5,6-dihydro-4H-pyrrolo[3,2,1-ij]quinolin-1-yl)-4-(1H-indol-3-yl)pyrrolidine-2,5-dione (300 mg/kg). The reduction of phospho-c-Met was detected immunohistochemically 24 hours later. […] Western blotting of the tumor sample for phospho-c-Met confirmed the immunohistochemical analysis (FIG. 11, Panel B).

T1 sequence (P08581 25-1390): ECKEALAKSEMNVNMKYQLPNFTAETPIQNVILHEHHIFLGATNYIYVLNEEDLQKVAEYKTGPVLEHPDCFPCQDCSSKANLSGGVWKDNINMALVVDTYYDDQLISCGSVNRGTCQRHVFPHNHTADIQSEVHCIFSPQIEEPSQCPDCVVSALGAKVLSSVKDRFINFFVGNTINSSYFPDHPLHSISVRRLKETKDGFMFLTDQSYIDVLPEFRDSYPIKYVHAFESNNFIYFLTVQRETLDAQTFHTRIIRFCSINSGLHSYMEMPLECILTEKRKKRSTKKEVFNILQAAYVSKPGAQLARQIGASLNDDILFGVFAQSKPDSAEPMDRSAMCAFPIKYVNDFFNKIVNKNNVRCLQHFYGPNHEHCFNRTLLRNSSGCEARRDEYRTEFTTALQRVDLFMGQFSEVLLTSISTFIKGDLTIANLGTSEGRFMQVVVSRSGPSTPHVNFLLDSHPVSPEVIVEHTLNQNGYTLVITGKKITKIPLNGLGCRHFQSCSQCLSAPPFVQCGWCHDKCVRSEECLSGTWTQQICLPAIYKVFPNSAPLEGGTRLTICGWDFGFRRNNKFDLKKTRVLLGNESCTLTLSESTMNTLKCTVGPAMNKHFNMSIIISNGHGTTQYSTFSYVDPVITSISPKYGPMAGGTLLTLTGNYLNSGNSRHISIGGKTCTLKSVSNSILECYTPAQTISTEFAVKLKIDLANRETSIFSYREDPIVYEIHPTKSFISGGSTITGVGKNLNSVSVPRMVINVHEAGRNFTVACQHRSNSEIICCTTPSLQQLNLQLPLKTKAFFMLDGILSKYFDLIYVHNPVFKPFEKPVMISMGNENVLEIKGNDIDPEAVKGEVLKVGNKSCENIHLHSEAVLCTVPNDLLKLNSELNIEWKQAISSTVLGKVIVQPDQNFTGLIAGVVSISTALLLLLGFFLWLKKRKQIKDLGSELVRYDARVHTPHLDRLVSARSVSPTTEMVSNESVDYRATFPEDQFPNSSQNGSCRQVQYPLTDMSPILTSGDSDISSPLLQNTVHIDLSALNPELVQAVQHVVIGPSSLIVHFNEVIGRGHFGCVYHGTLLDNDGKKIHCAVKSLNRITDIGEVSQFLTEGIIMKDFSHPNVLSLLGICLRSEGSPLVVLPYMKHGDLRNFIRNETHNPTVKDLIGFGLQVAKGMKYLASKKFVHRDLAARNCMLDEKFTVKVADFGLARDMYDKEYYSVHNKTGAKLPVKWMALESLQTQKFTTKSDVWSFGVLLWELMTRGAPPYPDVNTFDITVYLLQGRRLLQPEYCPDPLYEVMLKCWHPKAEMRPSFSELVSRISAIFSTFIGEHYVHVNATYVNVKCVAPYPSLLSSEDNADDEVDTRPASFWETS

O=C1NC(=O)[C@@H](c2cn3c4c(cccc24)CCC3)[C@@H]1c1c[nH]c2ccccc12 (single isomer, unassigned) [(−)-trans-3-(5,6-dihydro-4H-pyrrolo[3,2,1-ij]quinolin-1-yl)-4-(1H-indol-3-yl)pyrrolidine-2,5-dione]
Tumor growth inhibition ([1]; 200 mg/kg orally, daily 5 days on / 2 days off, 20 doses, p=0.009): 79%
change in body weight ([1]; oral administration at 200 mg/kg): no significant change in body weight
sensitivity (cytotoxicity MTS assay) (MCF-7): little sensitivity
sensitivity (cytotoxicity MTS assay) (NCI-H661): little sensitivity
sensitivity (cytotoxicity MTS assay) (SK-MEL-28): little sensitivity
amount of phospho-c-Met in tumor (phospho-c-Met): significant decrease in the amount of phospho-c-Met
